# Experimental data as given in US20140155334A1, “POLYPHOSPHATE AND PYROPHOSPHATE DERIVATIVE OF SACCHARIDES” (Université de Strasbourg, priority 2010, published 2014).
# Target: T1, stripped human Hb (Homo sapiens, UniProt P68871+P69905)
# T1 construct: from tissue; host or cells: human blood (red blood cell hemolysate, gel-filtered on Sephadex G-25 to remove BPG)
# Experiment: Oxygen equilibrium curves of stripped hemoglobin (Hemox Analyzer), P50 shift
# Assay type: biochemical
# Conditions: compound:Hb molar ratio 20:1, TES-saline buffer pH 7.4
# From the text: Human blood was withdrawn from non-smoking healthy volunteers (CDD) in heparinized microtubes and treated according to the procedure described by Riggs. See A. Riggs, Methods Enzymol. 1981, 76, 5. Red blood cells were washed three times with 0.85% saline and lysed by the addition of 1 volume of purified water per volume of packed red blood cells. Hemolysate was kept cold and passed through a Sephadex G-25 column (1.0×20 cm) equilibrated with 0.1 M NaCl with 10^−5 M EDTA pH 7.5, to remove BPG. The concentration of oxy-Hb was assessed by UV-Vis spectrophotometry (ε=58400 M^−1 cm^−1 at 577 nm per oxy-Hb tetramer).
# Solutions of the test compounds (supra, 100 mM) were prepared in purified water and the pH was adjusted to 7.0-7.4 prior to incubations with stripped Hb in a molar ratio of 20:1. The mixtures were diluted in 3 ml of TES-saline buffer (30 mM TES, 140 mM saline, pH 7.4) and oxygen equilibrium curves were measured using a Hemox Analyzer apparatus (TCS Scientific Corp., USA). The P50 values and Hill coefficients were calculated by linear regression analysis from data points obtained between 40 and 60% oxygen saturation.
# T1 sequence (P68871 2-147 limits assumed): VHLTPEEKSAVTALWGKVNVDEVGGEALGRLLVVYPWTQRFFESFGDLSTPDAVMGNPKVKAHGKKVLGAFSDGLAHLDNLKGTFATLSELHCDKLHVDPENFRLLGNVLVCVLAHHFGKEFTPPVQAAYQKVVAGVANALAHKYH
# T1 sequence (P69905 2-142 limits assumed): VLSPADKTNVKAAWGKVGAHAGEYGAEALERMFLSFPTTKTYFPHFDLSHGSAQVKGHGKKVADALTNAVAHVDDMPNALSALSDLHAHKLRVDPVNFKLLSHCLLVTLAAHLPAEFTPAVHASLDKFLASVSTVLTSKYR
Structure (SMILES),relative effectiveness in lowering Hb affinity to oxygen (comparison in words),shift of the Hb oxygenation curves (P50) [%]
"O=C([O-])[C@@H](COP(=O)([O-])[O-])OP(=O)([O-])[O-].[Na+].[Na+].[Na+].[Na+].[Na+] [BPG, 2,3-bisphospho-D-glyceric acid pentasodium salt, reference compound]",BPG<ITPP<IHP,
"CO[C@H]1O[C@H](CO)[C@@H](OP(=O)(O)O)[C@H](OP(=O)(O)O)[C@H]1OP(=O)(O)O [Compound 8, 1-O-methyl-α-glucose 2,3,4-trisphosphate]",,113
"CO[C@H]1O[C@H](CO)[C@@H](OP(=O)(O)O)[C@H](OP(=O)(O)O)[C@@H]1OP(=O)(O)O [Compound 10, 1-O-methyl-α-mannose 2,3,4-trisphosphate]",generally more effective than their corresponding glucose,144
"O=P(O)(O)O[C@H]1O[C@H](CO)[C@@H](OP(=O)(O)O)[C@H](OP(=O)(O)O)[C@H]1OP(=O)(O)O [Compound 29, α-glucose 1,2,3,4-tetrakisphosphate]",,266
"O=P(O)(O)O[C@@H]1O[C@H](CO)[C@@H](OP(=O)(O)O)[C@H](OP(=O)(O)O)[C@H]1OP(=O)(O)O [Compound 30, β-glucose 1,2,3,4-tetrakisphosphate]",,201
"O=P(O)(O)O[C@H]1O[C@H](CO)[C@@H](OP(=O)(O)O)[C@H](OP(=O)(O)O)[C@@H]1OP(=O)(O)O [Compound 31, α-mannose 1,2,3,4-tetrakisphosphate]",generally more effective than their corresponding glucose,
"O=P(O)(O)O[C@@H]1O[C@H](CO)[C@@H](OP(=O)(O)O)[C@H](OP(=O)(O)O)[C@@H]1OP(=O)(O)O [Compound 32, β-mannose 1,2,3,4-tetrakisphosphate]",generally more effective than their corresponding glucose,
"O=P(O)(O)O[C@H]1O[C@H](CO)[C@H](OP(=O)(O)O)[C@H](OP(=O)(O)O)[C@H]1OP(=O)(O)O [Compound 33, α-galactose 1,2,3,4-tetrakisphosphate]",,226
"O=P(O)(O)O[C@@H]1O[C@H](CO)[C@H](OP(=O)(O)O)[C@H](OP(=O)(O)O)[C@H]1OP(=O)(O)O [Compound 34, β-galactose 1,2,3,4-tetrakisphosphate]",,259
"CO[C@H]1O[C@H](COP(=O)(O)O)[C@@H](OP(=O)(O)O)[C@H](OP(=O)(O)O)[C@H]1OP(=O)(O)O [Compound 41, 1-O-methyl-α-glucose tetrakisphosphate]",,264
"CO[C@H]1O[C@H](COP(=O)(O)O)[C@@H](OP(=O)(O)O)[C@H](OP(=O)(O)O)[C@@H]1OP(=O)(O)O [Compound 42, 1-O-methyl-α-mannose tetrakisphosphate]",less effective than the other mannose tetrakisphosphates derivatives,
"O=P(O)(O)OC[C@H]1O[C@H](OP(=O)(O)O)[C@H](OP(=O)(O)O)[C@@H](OP(=O)(O)O)[C@@H]1OP(=O)(O)O [Compound 47, α-glucose pentakisphosphate]",,466
"O=P(O)(O)OC[C@H]1O[C@H](OP(=O)(O)O)[C@@H](OP(=O)(O)O)[C@@H](OP(=O)(O)O)[C@@H]1OP(=O)(O)O [Compound 49, α-mannose pentakisphosphate]",generally more effective than their corresponding glucose,520
"O=P(O)(O)OC[C@H]1O[C@H](OP(=O)(O)O)[C@H](OP(=O)(O)O)[C@@H](OP(=O)(O)O)[C@H]1OP(=O)(O)O [Compound 51, α-galactose pentakisphosphate]",,449
"O=P(O)(O)OC[C@H]1O[C@@H](O[C@H]2[C@H](OP(=O)(O)O)[C@@H](OP(=O)(O)O)C(OP(=O)(O)O)O[C@@H]2COP(=O)(O)O)[C@H](OP(=O)(O)O)[C@@H](OP(=O)(O)O)[C@H]1OP(=O)(O)O (some centres unmarked) [Compound 55, lactose octakisphosphate]",,550
"O=P(O)(O)O[C@H]1[C@H](OP(=O)(O)O)[C@@H](OP(=O)(O)O)[C@H](OP(=O)(O)O)[C@@H](OP(=O)(O)O)[C@H]1OP(=O)(O)O [IHP, myo-inositol hexakisphosphate, reference compound]",BPG<ITPP<IHP,466
"O=P1([O-])OC2C3OP(=O)([O-])OP(=O)([O-])OC3C3OP(=O)([O-])OP(=O)([O-])OC3C2OP(=O)([O-])O1.[Na+].[Na+].[Na+].[Na+].[Na+].[Na+] (centres unmarked) [ITPP, myo-inositol trispyrophosphate hexasodium salt, reference compound]",BPG<ITPP<IHP,
